Data published in patent US20120157401A1, “METHODS FOR TREATING NEUROFIBROMATOSIS” (PTC Therapeutics, Inc., priority 2009, published 2012).
“Also recorded” adds a separate entry of the source. Marks after values point to notes of the source that are not given here.

Columns and labels:
tumor volume = experiment: Patients: tumor volume by MRI; format: in vivo, human
Text: Antitumor activity: Previously used radiographic response and progression criteria (see, e.g., Widemann et al., J. Clin. Oncol., January 2006, 24(3):507-16; and di Tomaso, “Preliminary success with anti-angiogenic therapy of NF2-related tumors” (Meeting abstract) 2008 NF Conference, Children's Tumor Foundation, Bonita Springs, Fla., Jun. 6-10, 2008) can be used to evaluate the ability of a Compound to specifically induce tumor shrinkage.
Timing of Tumor Volume Assessment: Subjects may undergo tumor volume measurement at screening, and at various times throughout the treatment protocol.
Method of Assessment: The determination of antitumor efficacy may be based on objective tumor assessments made according to volumetric measurement (see Widemann et al., J Clin Oncol. 2006 Jan. 20; 24(3):507-16; di Tomaso et al., Preliminary success with anti-angiogenic therapy of NF2-related tumors. (Meeting abstract). 2008 NF Conference, Children's Tumor Foundation, Bonita Springs, Fla., Jun. 6-10, 2008; Harris et al., Neurosurgery. 2008 June 62(6): 1314-9) and treatment decisions by the physician can be based on these assessments.
The MRI examinations may be performed using a standard head coil with 1.5-T scanners. […] For VS quantitative assessment, the MRI scans may be transmitted to a Vitrea2 workstation (Vital Images, Minnetonka, Minn.) for image processing and volume calculation.

CYP2D6 = target: T1, CYP2D6 (Homo sapiens, UniProt P10635); experiment: CYP inhibition in human hepatic microsomes / recombinant isoenzymes: CYP2D6; format: in vitro ADME; conditions: human hepatic microsomes or recombinant isoenzymes
T1 construct: host or cells: human hepatic microsomes or recombinant isoenzyme (not distinguished)
T1 sequence (P10635 whole entry): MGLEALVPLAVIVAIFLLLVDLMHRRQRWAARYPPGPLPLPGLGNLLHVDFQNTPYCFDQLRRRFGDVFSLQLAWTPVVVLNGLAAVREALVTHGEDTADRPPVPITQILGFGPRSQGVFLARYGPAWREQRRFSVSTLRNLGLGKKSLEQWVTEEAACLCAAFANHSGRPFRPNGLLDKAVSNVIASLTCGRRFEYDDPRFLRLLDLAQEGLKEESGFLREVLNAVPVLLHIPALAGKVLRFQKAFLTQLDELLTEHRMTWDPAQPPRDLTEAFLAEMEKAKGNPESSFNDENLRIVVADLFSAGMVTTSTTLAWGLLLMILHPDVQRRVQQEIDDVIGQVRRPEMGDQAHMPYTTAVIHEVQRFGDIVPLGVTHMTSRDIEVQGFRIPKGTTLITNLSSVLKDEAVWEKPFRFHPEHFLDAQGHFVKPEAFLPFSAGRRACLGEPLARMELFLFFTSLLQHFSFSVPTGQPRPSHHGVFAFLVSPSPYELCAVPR
Text: (§1) It is possible that in certain clinical trial subjects, such agents may need to be adjusted for dosing or replaced by alternative agents that are not metabolized by CYP2D6, particularly when such agents may have a low therapeutic index.

[1] = Phase 1 multiple-dose study in healthy volunteers: safety and tolerability; format: in vivo, human
Text: Methods. The trial was a Phase 1, randomized, escalating multiple dose, single center study conducted in 2 stages.

HT1080 xenografts = experiment: BrdU labeling of cells from HT1080 xenografts grown in nude mice; format: in vivo, athymic nude mice; conditions: Day 1, 2, 3; Compound #10 10 mg/kg oral QD, doxorubicin 6 mg/kg IP, bevacizumab 5 mg/kg IP
Method: Experimental Design. HT1080 cells (5×10^6 cells/mouse) were implanted subcutaneously in male athymic nude mice.
The mice were sacrificed 3 hours later, and the tumors collected. A single cell suspension was prepared from the tumor cells. The cells were permeabilized and an antibody to BrdU was used to stain cells that had entered S phase during the labeling period. The proportion of cells actively synthesizing DNA was determined by cell sorting.

[2] = 28-day oral toxicity study in dogs (15-day recovery)
Method: The L23 vehicle was used. […] All studies in the toxicology program were conducted according to GLP regulations.

HT1080 cells = experiment: HT1080 spheroid cell viability and mobility (migration after re-plating); format: cell-based, human
Method: Experimental Design. […] Pictures were then taken 48 hours to assess the migration and proliferation of the cells across the well's surface.

SY5Y xenografts = experiment: SY5Y neuroblastoma subcutaneous xenograft: tumor growth; format: in vivo
Method: Experimental Design. SY5Y cells are derived from a human neuroblastoma, a childhood tumor arising in neural crest cells. SY5Y cells (1×10^7 cells/mouse) were implanted subcutaneously in male athymic nude mice.
Tumor size was measured by calipers at periodic intervals. When the average tumor size in a group exceeded 2000 mm^3, the mice in the group were sacrificed and excised tumors were assayed for intratumoral VEGF concentration as described in Section 9.1.1.1.

[3] = test system: soluble VEGF121 and VEGF165 isoforms; experiment: Inhibition of soluble VEGF production in human tumor cell lines (ELISA, EC50); format: cell-based
Method: Study Design. […] In these experiments, cultures were established under normoxic conditions (21% oxygen). […] Cells requiring induction of VEGF production were incubated under hypoxic conditions (1% oxygen). At the completion of treatment, the conditioned media were collected and assayed by ELISA (as described in Section 9.1.1.1) for soluble VEGF121 and VEGF165 isoforms; results were calculated as percentage inhibition relative to vehicle treated controls. EC50 values were calculated from the dose concentration response curves.

physiological VEGF-A = experiment: Phase 1 multiple-dose study: plasma and serum physiological VEGF-A concentrations; format: in vivo, human; conditions: healthy volunteers, all doses tested
Text: Plasma VEGF Concentrations: Plasma and serum VEGF concentrations and concentration changes from baseline were presented descriptively.

CYPC19 = target: T2, CYPC19 (Homo sapiens, UniProt P33261); experiment: CYP inhibition: CYPC19; format: in vitro ADME; conditions: human hepatic microsomes or recombinant isoenzymes
T2 construct: host or cells: human hepatic microsomes or recombinant isoenzyme (not distinguished)
T2 sequence (P33261 whole entry): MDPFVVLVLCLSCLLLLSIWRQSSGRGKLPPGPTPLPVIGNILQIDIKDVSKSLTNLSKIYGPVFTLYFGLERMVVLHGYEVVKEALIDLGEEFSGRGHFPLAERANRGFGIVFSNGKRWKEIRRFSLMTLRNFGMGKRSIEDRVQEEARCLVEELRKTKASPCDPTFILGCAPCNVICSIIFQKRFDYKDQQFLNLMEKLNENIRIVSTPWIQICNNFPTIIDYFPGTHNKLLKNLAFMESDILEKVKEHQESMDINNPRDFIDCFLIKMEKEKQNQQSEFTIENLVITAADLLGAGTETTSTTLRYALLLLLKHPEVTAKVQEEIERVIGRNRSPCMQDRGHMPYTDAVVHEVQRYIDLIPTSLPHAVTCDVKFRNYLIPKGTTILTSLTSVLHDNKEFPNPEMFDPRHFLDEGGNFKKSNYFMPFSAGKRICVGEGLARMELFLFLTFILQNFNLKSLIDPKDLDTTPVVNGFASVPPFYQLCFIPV
Text: as §1

[4] = Patients: hearing function (word recognition, pure tone threshold, BAER); format: in vivo, human
Text: Hearing function: Assessments of word recognition and pure tone thresholds may be direct measures of patient functioning that define symptomatic consequences of the presence of VS (see, e.g., Halpin et al., Otol Neurotol., January 2006, 27(1):110-6). Standard clinical criteria for definition of hearing response (H-R) based on a 50-word hearing test (see, e.g., Thornton et al., J. Speech Hear. Res., September 1978, 21(3): 507-18) can be employed for word recognition tests.
Hearing Tests. Subjects may undergo hearing tests at screening, and at various times during the treatment protocol. Hearing assessment may be determined in standard clinical fashion and may include:
Determination of word recognition scores using a standardized list of test words, i.e., the 50-item Central Institute for the Deaf [CID] list W-22, recorded) (Thornton et al., J. Speech Hear Res., September 1978, 21(3): 507-18);
Pure-tone averages calculated as the average of the pure-tone thresholds at 500, 1000, 2000, and 3000 Hz;
Brainstem auditory evoked response (BAERs) reported as the latency of wave V, if present; and […]

[5] = 50 mg/kg QD, 5 days per week (Table 18)

Question: With `COc1ccc(C2c3[nH]c4ccc(Cl)cc4c3CCN2C(=O)Oc2ccc(Cl)cc2)cc1` (racemic) [Compound #10] as the molecule, how does the “Tumor volume, one patient (FIG. 40)” value (tumor volume) read?
Answer: Its value is “reducing and stabilizing tumor volume”.

Question: What about the “Inhibition of CYP2D6 isoenzyme activity” value (CYP2D6) of the same molecule?
Answer: The value was “inhibits the activity”.

Question: What about the “Grade of treatment emergent adverse events and laboratory abnormalities” value ([1]; healthy volunteers, 7 days) of the same molecule?
Answer: Its value is “generally Grade 1”.

Question: And the QTc prolongation ([1]; healthy volunteers, 7 days)?
Answer: The QTc prolongation was “no meaningful QTc prolongation”.

Question: What about the Maximum tolerated dose ([1]; through the highest dose level tested ([…] TID)) of the same molecule?
Answer: Its Maximum tolerated dose is “No MTD was established”.

Question: What about the “BrdU staining of tumor cells (proportion of cells in S phase)” value (HT1080 xenografts) of the same molecule?
Answer: Its value is “increased BrdU staining”.

Question: And the “Dose of maximal exposures” value [2]?
Answer: Its value is 30 mg/kg/dose BID.

Question: What about the “Target organ of toxicity” value ([2]; high dose) of the same molecule?
Answer: The value was “small intestine”.

Question: And the “Proliferative and migratory capacity after three-week exposure, re-plated in the absence of compound” value (HT1080 cells; 50 nM for 3 weeks)?
Answer: The value was “does not reduce either the proliferative or the migratory capacity”.

Question: What about the “Migration of cells out of control spheroids re-plated in the presence of compound” value (HT1080 cells; 50 nM, 48 hours) of the same molecule?
Answer: The value was “blocked in their ability to migrate out of the spheroid”.

Question: What about the “Mean % Inhibition of Tumor Size vs Vehicle at Day 17” value (SY5Y xenografts; [5]) of the same molecule?
Answer: Its value is 73* %.

Question: What about the “Median Time to Tumor Size ≧1000 mm^3” value (SY5Y xenografts; [5]) of the same molecule?
Answer: The value was 35 days.

Question: And the “Toxicity on observing the animals” value (SY5Y xenografts; SY5Y xenograft mice)?
Answer: The value was “no evidence of toxicity”.

Question: And the EC50 ([3]; A-375, Melanoma, A375, hypoxic (1% oxygen), 48 hours)?
Answer: Its EC50 is 50 nM.

Question: And the EC50 ([3]; A-431, Epidermoid, A431, 48 hours)?
Answer: Its EC50 is 10 nM.

Question: What about the EC50 ([3]; Breast, MDA-MB-468, hypoxic (1% oxygen), 48 hours) of the same molecule?
Answer: The EC50 was 5 nM.

Question: And the EC50 ([3]; Cervical, HeLa, hypoxic (1% oxygen), 48 hours)?
Answer: Its EC50 is 2 nM.

Question: And the EC50 ([3]; Colorectal, HCT-116, 48 hours)?
Answer: The EC50 was 10 nM.

Question: What about the EC50 ([3]; Gastric, AGS, 48 hours) of the same molecule?
Answer: Its EC50 is 0.1 nM.

Question: And the EC50 ([3]; Gastric, Kato III, hypoxic (1% oxygen), 48 hours)?
Answer: Its EC50 is 10 nM.

Question: What about the EC50 ([3]; HT-1080, Fibrosarcoma, HT1080, 48 hours) of the same molecule?
Answer: Its EC50 is 10 nM.

Question: And the EC50 ([3]; Lung, A549, 48 hours)?
Answer: Its EC50 is 50 nM.

Question: What about the EC50 ([3]; Lung, Calu-6, hypoxic (1% oxygen), 48 hours) of the same molecule?
Answer: Its EC50 is 7 nM.

Question: And the EC50 ([3]; Lung, NCI H460, 48 hours)?
Answer: The EC50 was 10 nM.

Question: What about the EC50 ([3]; MDA-MB-231, 48 h) of the same molecule?
Answer: The EC50 was 5 nM.

Question: And the EC50 ([3]; Neuroblastoma, SY5Y, hypoxic (1% oxygen), 48 hours)?
Answer: The EC50 was 5 nM.

Question: And the EC50 ([3]; Pancreas, Capan-1, hypoxic (1% oxygen), 48 hours)?
Answer: The EC50 was 5 nM.

Question: And the EC50 ([3]; Prostate, LNCaP, hypoxic (1% oxygen), 48 hours)?
Answer: The EC50 was 15 nM.

Question: And the EC50 ([3]; Renal cell, HEK293, 48 hours)?
Answer: Its EC50 is 10 nM.

Question: What about the EC50 ([3]; SK-OV-3, Ovarian, SKOV3, hypoxic (1% oxygen), 48 hours) of the same molecule?
Answer: The EC50 was 10 nM.

Question: And the EC50 ([3]; SNU1, Gastric, SNU-1, 48 hours)?
Answer: The EC50 was 0.1 nM.

Question: And the “Effect on plasma or serum physiological VEGF-A concentrations” value (physiological VEGF-A)?
Answer: Its value is “no clear dose dependent effects; also recorded: No significant alterations”.

Question: What about the “Inhibition of CYPC19” value (CYPC19) of the same molecule?
Answer: The value was “No meaningful inhibition”.

Question: What about the “Hearing function in patients (FIG. 39)” value [4] of the same molecule?
Answer: Its value is “stabilized hearing function”.
